Experimental data reported in the NIST ThermoML archive (doi:10.1016/j.jct.2007.07.005).

Assay: xn = mol fraction of the nth substance listed
Settings: Fluid (supercritical or subcritical phases), vibrating tube

CCCCCO [pentan-1-ol] + O=C=O
Settings	mass density [kg/m3]
313.11 K, 24020 kPa, x2 = 0.0816	821.33
313.11 K, 25023 kPa, x2 = 0.0816	822.02
313.12 K, 10002 kPa, x2 = 0.8573	809.77
313.12 K, 10012 kPa, x2 = 0.7274	838.41
313.12 K, 11010 kPa, x2 = 0.7274	841.91
313.12 K, 11023 kPa, x2 = 0.8573	818.98
313.12 K, 11998 kPa, x2 = 0.7274	845.15
313.12 K, 12025 kPa, x2 = 0.8573	826.77
313.12 K, 13005 kPa, x2 = 0.8573	833.59
313.12 K, 13032 kPa, x2 = 0.7274	848.39
313.12 K, 14012 kPa, x2 = 0.8573	839.94
313.12 K, 14027 kPa, x2 = 0.7274	851.37
313.12 K, 15004 kPa, x2 = 0.7274	854.2
313.12 K, 15004 kPa, x2 = 0.8573	845.66
313.12 K, 15995 kPa, x2 = 0.8573	851
313.12 K, 16022 kPa, x2 = 0.7274	857
313.12 K, 17007 kPa, x2 = 0.8573	856.08
313.12 K, 17019 kPa, x2 = 0.7274	859.65
313.12 K, 18013 kPa, x2 = 0.8573	860.84
313.12 K, 18018 kPa, x2 = 0.7274	862.21
313.12 K, 19038 kPa, x2 = 0.8573	865.44
313.12 K, 19055 kPa, x2 = 0.7274	864.78
313.12 K, 19966 kPa, x2 = 0.7274	866.98
313.12 K, 20008 kPa, x2 = 0.8573	869.59
313.12 K, 21008 kPa, x2 = 0.8573	873.67
313.12 K, 21014 kPa, x2 = 0.7274	869.44
313.12 K, 22009 kPa, x2 = 0.8573	877.54
313.12 K, 22029 kPa, x2 = 0.7274	871.77
313.12 K, 23015 kPa, x2 = 0.8573	881.34
313.12 K, 23059 kPa, x2 = 0.7274	874.05
313.12 K, 23995 kPa, x2 = 0.8573	884.88
313.14 K, 5019 kPa, x2 = 0.1347	808.85
313.14 K, 6010 kPa, x2 = 0.1347	809.58
313.14 K, 7003 kPa, x2 = 0.1347	810.4
313.14 K, 8042 kPa, x2 = 0.1347	811.24
313.14 K, 9023 kPa, x2 = 0.1347	812.05
313.14 K, 10012 kPa, x2 = 0.1347	812.85
313.14 K, 11019 kPa, x2 = 0.1347	813.62
313.14 K, 12025 kPa, x2 = 0.1347	814.42
313.14 K, 13017 kPa, x2 = 0.1347	815.18
313.14 K, 14011 kPa, x2 = 0.1347	815.96
313.14 K, 15011 kPa, x2 = 0.1347	816.73
313.14 K, 16014 kPa, x2 = 0.1347	817.47
313.14 K, 17041 kPa, x2 = 0.1347	818.22
313.14 K, 18022 kPa, x2 = 0.1347	818.95
313.14 K, 19022 kPa, x2 = 0.1347	819.67
313.14 K, 20012 kPa, x2 = 0.1347	820.39
313.14 K, 21027 kPa, x2 = 0.1347	821.12
313.14 K, 22024 kPa, x2 = 0.1347	821.83
313.14 K, 23011 kPa, x2 = 0.1347	822.55
313.14 K, 24032 kPa, x2 = 0.1347	823.28
313.14 K, 25004 kPa, x2 = 0.1347	824
313.17 K, 8123 kPa, x2 = 0.6054	838.39
313.17 K, 9084 kPa, x2 = 0.6054	840.4
313.17 K, 10125 kPa, x2 = 0.6054	842.5
313.17 K, 11050 kPa, x2 = 0.6054	844.32
313.17 K, 12045 kPa, x2 = 0.6054	846.23
313.17 K, 13094 kPa, x2 = 0.6054	848.18
313.17 K, 14054 kPa, x2 = 0.6054	849.93
313.17 K, 15019 kPa, x2 = 0.6054	851.65
313.17 K, 16045 kPa, x2 = 0.6054	853.41
313.17 K, 17046 kPa, x2 = 0.6054	855.12
